Values after ≈ are worked out from the molar mass of the structure shown. Read-outs that look alike come from different tables or passages of the source.
Key:
Type in all cases: cell-based
[1] = test system: E. coli GYR107 GyrB F513L/L422V; assay: microbe, parasite or virus in culture; settings: Escherichia coli
Description: (§1) E. coli HS151 (ΔtolC) has been described previously. […] E. coli BW25113 and the Keio gene deletion collection based on BW25113 [25] were obtained from Thermo Fisher Scientific (Waltham, MA) and described in [26]. The plasmid-borne FQ resistance determinant, qnrVC3 [27], was kindly provided by D. Hooper (Massachusetts General Hospital). […] MB2884 (E. coli) and CL15245 (K. pneumoniae) are clinical isolates from the Merck & Co., Inc., Kenilworth, NJ, USA, strain collection. S. aureus COL is a methicillin-resistant clinical isolate.
(§2) Compound doubling dilutions were prepared in 100% DMSO (Sigma Aldrich) and 2 μL of each dilution was transferred to a 96-well plate with lid (Thermo Scientific). Inoculum for all MIC testing was prepared using the BBL Prompt Inoculation System (Becton Dickinson, Franklin Lakes, NJ USA) as described by the manufacturer to produce a suspension of cells at approximately 1.5 x 10^8 colony forming units (CFU)/mL [34–36] and a further dilution (1:1000) was made into cation adjusted Mueller-Hinton broth (CAMH broth, Becton-Dickinson). One hundred μL of this inoculum were then transferred to each well of the 96-well plate containing diluted compound (above). Plates were covered and incubated overnight (18 hrs.) at 37°C.
(§3) After the agar solidified, 5 μL of a saturated bacterial culture, grown in CAMH broth, were dispensed on the agar surface and allowed to dry at room temperature. […] After the surface dried at room temperature the plate was incubated at 37°C overnight. […] Genomic DNA from the parent strain (E. coli HS151) and purified (restreaked) resistant isolates was obtained with a GeneJET genomic DNA purification kit according to the manufacturer’s instructions (Fisher Scientific). Assembled whole genome mutant sequences were then compared to the parent strain and polymorphisms were identified as described.

[2] = test system: E. coli GYR104 GyrB L470I; assay: microbe, parasite or virus in culture; settings: Escherichia coli
Description: as §1, §2, §3

[3] = test system: E. coli GYR101 GyrB F513L; assay: microbe, parasite or virus in culture; settings: Escherichia coli
Description: as §1, §2, §3

[4] = test system: E. coli GYR102 GyrB E466EV; assay: microbe, parasite or virus in culture; settings: Escherichia coli
Description: as §1, §2, §3

[5] = test system: E. coli GYR108 GyrB L470I/V467L; assay: microbe, parasite or virus in culture; settings: Escherichia coli
Description: as §1, §2, §3

[6] = test system: E. coli GYR105 GyrB T469K; assay: microbe, parasite or virus in culture; settings: Escherichia coli
Description: as §1, §2, §3

[7] = test system: E. coli GYR106 GyrB F513L/A468V; assay: microbe, parasite or virus in culture; settings: Escherichia coli
Description: as §1, §2, §3

[8] = test system: E. coli HS151 (ΔtolC); assay: microbe, parasite or virus in culture; settings: Escherichia coli
Description: as §1, §2

[9] = test system: E. coli CIP101 GyrA D87N; assay: microbe, parasite or virus in culture; settings: Escherichia coli
Experimental: as §2

[10] = test system: E. coli GYR103 GyrB L446Q; assay: microbe, parasite or virus in culture; settings: Escherichia coli
Description: (§4) E. coli HS151 (ΔtolC) has been described previously. Gyrase inhibitor-resistant isolates (GYR101-108) were derived by selection for spontaneous resistance to MRL-770 or MRL-423 (Fig 1) in E. coli HS151 as described below. E. coli BW25113 and the Keio gene deletion collection based on BW25113 [25] were obtained from Thermo Fisher Scientific (Waltham, MA) and described in [26]. The plasmid-borne FQ resistance determinant, qnrVC3 [27], was kindly provided by D. Hooper (Massachusetts General Hospital). MB9796 (A. baumannii) is a derivative of MB9797 (ATCC19606) lacking lipopolysaccharide. The efflux-defective P. aeruginosa strain MB5890 (CB398) is a derivative of MB5919 (PAO1). MB2884 (E. coli) and CL15245 (K. pneumoniae) are clinical isolates from the Merck & Co., Inc., Kenilworth, NJ, USA, strain collection. S. aureus COL is a methicillin-resistant clinical isolate.
as §2
After the agar solidified, 5 μL of a saturated bacterial culture, grown in CAMH broth, were dispensed on the agar surface and allowed to dry at room temperature. […] To select for resistance, a 100 mm petri dish was filled with 25 mL CAMH agar containing 8 μg/mL MRL-770 or 0.5 μg/mL MRL-423 (Fig 1). The cells in 1 mL of an overnight culture of E. coli HS151 (~10^9 CFU/mL) were concentrated by centrifugation and spread onto the surface of an MRL-770 or MRL-423 containing plate. After the surface dried at room temperature the plate was incubated at 37°C overnight. Any colonies that arose were counted and an approximate frequency of resistance was calculated after confirming resistance by restreaking on media containg compound as well as measuring MICs (see Results). Genomic DNA from the parent strain (E. coli HS151) and purified (restreaked) resistant isolates was obtained with a GeneJET genomic DNA purification kit according to the manufacturer’s instructions (Fisher Scientific). Assembled whole genome mutant sequences were then compared to the parent strain and polymorphisms were identified as described.

[11] = test system: K. pneumoniae CL15245 (clinical isolate); assay: Broth microdilution MIC, K. pneumoniae CL15245; settings: Klebsiella pneumoniae
Description: as §1, §2

[12] = test system: A. baumanii MB9797 (ATCC19606); assay: Broth microdilution MIC, A. baumannii MB9797; settings: Acinetobacter baumannii
Description: as §4, §2

[13] = test system: S. aureus (MRSA) COL; assay: Broth microdilution MIC, S. aureus COL; settings: Staphylococcus aureus
Description: as §4, §2

[14] = test system: E. coli MB2884 (clinical isolate); assay: Broth microdilution MIC, E. coli MB2884; settings: Escherichia coli
Description: as §1, §2

[15] = test system: A. baumannii ΔlpxC MB9796; assay: Broth microdilution MIC, A. baumannii MB9796; settings: Acinetobacter baumannii
Description: as §4, §2

[16] = test system: P. aeruginosa MB5919 (PAO1); assay: Broth microdilution MIC, P. aeruginosa MB5919; settings: Pseudomonas aeruginosa
Description: as §1, §2

[17] = test system: P. aeruginosa(effluxΔ) MB5890; assay: microbe, parasite or virus in culture; settings: Pseudomonas aeruginosa
Description: as §1, §2

[18] = test system: E. coli HS151 (qnrVC); assay: Broth microdilution MIC, E. coli HS151 (qnrVC); settings: Escherichia coli
Description: as §4, §2

[19] = test system: E. coli BW25113 ΔtolC/ΔyacG; assay: Broth microdilution MIC, E. coli BW25113 ΔtolC/ΔyacG; settings: Escherichia coli, BW25113
Experimental: as §2
The yacG deletion allele from the Keio collection was amplified by PCR (primers: […] and […]) and moved to BW25113 ΔtolC as described below. The E. coli strain BW25113 ΔtolC containing pKD46 [25] was used to inoculate SOB (Invitrogen)/0.2% w/v arabinose (Sigma Aldrich)/ampicillin (100 μg/mL) and grown overnight at 30°C. The overnight culture was then diluted 1/40 into 20 mL fresh SOB/0.2% w/v arabinose/ampicillin (100 μg/mL) and grown at 30°C while shaking for ~3 hrs until OD600 = 0.5. Cells were pelleted by centrifugation at 4000 rpm for 10 min, washed with 40 mL ice cold sterile, distilled H2O, then 3 x 1 mL ice cold 10% glycerol followed by centrifugation at 5000 g for 3 minutes. The pellet was resuspended in 100 μL of 10% glycerol (1/200 of starting culture). For transformation, 5 μL of gel purified PCR product was added to 50 μL cells, mixed, and immediately electroporated in a 0.2 cm gap cuvette at 2.5kV, 25 μF, 200 Ω (BioRad, Hercules, CA USA). Electroporated cells were recovered in 1 mL SOC (Invitrogen)/0.2% arabinose at 37°C for 2 hours with shaking. Cells in amounts of 50 and 950 μL were then plated on LB agar supplemented with kanamycin (25 μg/mL) and incubated overnight at 37°C. Correct gene replacements were verified by PCR.

[20] = test system: E. coli BW25113 ΔtolC; assay: Broth microdilution MIC, E. coli BW25113 ΔtolC; settings: Escherichia coli
Description: as §4, §2
The yacG deletion allele from the Keio collection was amplified by PCR (primers: […] and […]) and moved to BW25113 ΔtolC as described below. The E. coli strain BW25113 ΔtolC containing pKD46 [25] was used to inoculate SOB (Invitrogen)/0.2% w/v arabinose (Sigma Aldrich)/ampicillin (100 μg/mL) and grown overnight at 30°C. The overnight culture was then diluted 1/40 into 20 mL fresh SOB/0.2% w/v arabinose/ampicillin (100 μg/mL) and grown at 30°C while shaking for ~3 hrs until OD600 = 0.5. […]

[21] = Table 2, HS151, GyrB mutation none
[22] = Table 1, CL15245 K. pneumoniae, read-out: MIC
[23] = Table 1, MB9797 A. baumanii, read-out: MIC
[24] = Table 1, MB2884 E. coli, read-out: MIC
[25] = Table 1, MB5919 P. aeruginosa, read-out: MIC

SMILES	MIC [1] [µg/mL]	MIC [2] [µg/mL]	MIC [3] [µg/mL]	MIC [4] [µg/mL]	MIC [5] [µg/mL]	MIC [6] [µg/mL]	MIC [7] [µg/mL]	MIC [8, 21] [µg/mL]	MIC [9] [µg/mL]	MIC [10] [µg/mL]	MIC ([13]; MRSA) [µg/mL]	MIC [15] [µg/mL]	MIC [11, 22] [µg/mL]	MIC ([8]; Table 1, HS151 E. coli ΔtolC) [µg/mL]	MIC [17] [µg/mL]	MIC [12, 23] [µg/mL]	MIC [14, 24] [µg/mL]	MIC [16, 25] [µg/mL]	other results
COc1cc(Cc2cnc(N)nc2N)cc(OC)c1OC [Trimeth-oprim]	0.0625 (≈ 0.215 µM)	0.0625 (≈ 0.215 µM)	0.0625 (≈ 0.215 µM)	0.0625 (≈ 0.215 µM)	0.125 (≈ 0.431 µM)	0.0625 (≈ 0.215 µM)	0.0625 (≈ 0.215 µM)	0.0625 (≈ 0.215 µM)	0.0625 (≈ 0.215 µM)	0.0625 (≈ 0.215 µM)	–	–	–	–	–	–	–	–	–
C[C@H]1COc2c(N3CCN(C)CC3)c(F)cc3c(=O)c(C(=O)O)cn1c23 [levofloxacin]	–	0.0078 (≈ 0.0216 µM)	0.0078 (≈ 0.0216 µM)	0.0312 (≈ 0.0865 µM)	–	–	0.0078 (≈ 0.0216 µM)	–	0.0625 (≈ 0.173 µM)	0.0078 (≈ 0.0216 µM)	> 0.125	0.0156 (≈ 0.0432 µM)	–	–	–	–	–	–	MIC [11]: 0.0156 µg/mL (≈ 0.0432 µM); MIC ([8]; 18 h, Table 1, HS151 E. coli ΔtolC): 0.00195 µg/mL (≈ 0.0054 µM); MIC [12]: 0.125 µg/mL (≈ 0.346 µM); MIC [14]: 0.0156 µg/mL (≈ 0.0432 µM); MIC [16]: > 0.125 µg/mL
CO[C@@H]1[C@@H](OC(N)=O)[C@@H](O)[C@H](Oc2ccc3c(O)c(NC(=O)c4ccc(O)c(CC=C(C)C)c4)c(=O)oc3c2C)OC1(C)C [novobiocin]	2 (≈ 3.26 µM)	2 (≈ 3.26 µM)	2 (≈ 3.26 µM)	1 (≈ 1.63 µM)	2 (≈ 3.26 µM)	2 (≈ 3.26 µM)	2 (≈ 3.26 µM)	2 (≈ 3.26 µM)	2 (≈ 3.26 µM)	2 (≈ 3.26 µM)	0.125 (≈ 0.204 µM)	< 0.0625	> 64	2 (≈ 3.26 µM)	64 (≈ 104 µM)	8 (≈ 13.1 µM)	> 64	64 (≈ 104 µM)	MIC ([8]; Fig 4 legend, E. coli HS151): 2 µg/mL (≈ 3.26 µM); MIC ([8]; Table 3, HS151): 2 µg/mL (≈ 3.26 µM); MIC [18]: 2 µg/mL (≈ 3.26 µM); MIC [19]: 2 µg/mL (≈ 3.26 µM); MIC [20]: 2 µg/mL (≈ 3.26 µM)
CO[C@H]1/C=C/O[C@@]2(C)Oc3c(C)c(O)c4c(O)c(c(/C=N/N5CCN(C)CC5)c(O)c4c3C2=O)NC(=O)/C(C)=C\C=C\[C@H](C)[C@H](O)[C@@H](C)[C@@H](O)[C@@H](C)[C@H](OC(C)=O)[C@@H]1C [rifampicin]	–	–	–	–	–	–	–	–	8 (≈ 9.72 µM)	–	< 0.0625	< 0.0625	32 (≈ 38.9 µM)	–	32 (≈ 38.9 µM)	2 (≈ 2.43 µM)	8 (≈ 9.72 µM)	32 (≈ 38.9 µM)	–
CN(C)[C@@H]1C(O)=C(C(N)=O)C(=O)[C@@]2(O)C(O)=C3C(=O)c4c(O)cccc4[C@@](C)(O)[C@H]3C[C@@H]12 [tetracycline]	0.5 (≈ 1.13 µM)	0.5 (≈ 1.13 µM)	0.5 (≈ 1.13 µM)	0.5 (≈ 1.13 µM)	0.5 (≈ 1.13 µM)	0.5 (≈ 1.13 µM)	0.5 (≈ 1.13 µM)	0.5 (≈ 1.13 µM)	0.5 (≈ 1.13 µM)	0.5 (≈ 1.13 µM)	–	0.25 (≈ 0.563 µM)	2 (≈ 4.5 µM)	0.5 (≈ 1.13 µM)	0.25 (≈ 0.563 µM)	2 (≈ 4.5 µM)	–	32 (≈ 72 µM)	MIC ([13]; Table 1, COL S. aureus (MRSA), read-out: MIC): > 64 µg/mL
